Results reported in ChEMBL document CHEMBL1201862, “PubChem BioAssay data set” (2004).
Calls of active or inactive are those of the source.

Tests used:
[1] = molecular target: T1, Sentrin-specific protease 8 (Homo sapiens, UniProt Q96LD8); type: functional
T1 sequence (Q96LD8 whole entry): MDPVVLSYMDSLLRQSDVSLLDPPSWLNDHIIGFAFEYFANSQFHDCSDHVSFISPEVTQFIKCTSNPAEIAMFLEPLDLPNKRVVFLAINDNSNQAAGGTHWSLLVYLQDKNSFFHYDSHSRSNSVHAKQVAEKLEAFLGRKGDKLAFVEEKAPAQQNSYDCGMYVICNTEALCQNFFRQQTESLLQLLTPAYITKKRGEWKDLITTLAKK

[2] = molecular target: T1, Sentrin-specific protease 8; type: functional; remark: listed apart in the source
[3] = cells; type: functional, cell-based
[4] = molecular target: T2, Trace amine-associated receptor 1 (Homo sapiens, UniProt Q96RJ0); test: Fluorescence-based cell-based high throughput dose response assay to identify agonists of the human trace amine associated receptor 1 (TAAR1).; type: functional
T2 sequence (Q96RJ0 whole entry): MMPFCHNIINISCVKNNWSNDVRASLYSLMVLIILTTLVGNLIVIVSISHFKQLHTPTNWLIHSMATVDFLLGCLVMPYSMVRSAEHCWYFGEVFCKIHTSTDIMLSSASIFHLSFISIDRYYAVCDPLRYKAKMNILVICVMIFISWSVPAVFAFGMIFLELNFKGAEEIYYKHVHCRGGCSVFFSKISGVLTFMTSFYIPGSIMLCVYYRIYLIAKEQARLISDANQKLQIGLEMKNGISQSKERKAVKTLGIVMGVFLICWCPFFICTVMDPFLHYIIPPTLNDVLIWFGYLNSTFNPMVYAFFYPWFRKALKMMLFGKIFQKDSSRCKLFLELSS

[5] = molecular target: T2, Trace amine-associated receptor 1; test: Counterscreen for agonists of the human trace amine associated receptor 1 (hTAAR1): Fluorescence-based cell-based high throughput dose response assay to identify hTAAR1 agonist that also desensitize TAAR1 receptor response.; type: functional
[6] = cells; type: functional, cell-based; remark: listed apart in the source
[7] = molecular target: T3, Corticotropin-releasing factor receptor 2/Corticotropin-releasing factor-binding protein (Homo sapiens, UniProt P24387+Q13324); test: Dose Response confirmation of uHTS hits for small molecule antagonists of the CRF-binding protein and CRF-R2 receptor complex.; type: functional; details: read-out: IC50_Mean
T3 sequence (Q13324 whole entry): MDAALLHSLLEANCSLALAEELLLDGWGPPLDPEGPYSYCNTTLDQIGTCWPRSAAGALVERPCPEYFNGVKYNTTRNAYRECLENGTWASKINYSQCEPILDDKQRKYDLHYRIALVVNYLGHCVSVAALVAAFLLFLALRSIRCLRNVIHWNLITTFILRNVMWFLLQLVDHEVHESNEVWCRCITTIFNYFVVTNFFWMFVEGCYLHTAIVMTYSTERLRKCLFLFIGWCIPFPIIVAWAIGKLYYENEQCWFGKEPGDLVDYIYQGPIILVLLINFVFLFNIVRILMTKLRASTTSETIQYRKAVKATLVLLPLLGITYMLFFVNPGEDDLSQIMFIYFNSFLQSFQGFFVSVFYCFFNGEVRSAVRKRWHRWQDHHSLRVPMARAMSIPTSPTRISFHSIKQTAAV
T3 sequence (P24387 whole entry): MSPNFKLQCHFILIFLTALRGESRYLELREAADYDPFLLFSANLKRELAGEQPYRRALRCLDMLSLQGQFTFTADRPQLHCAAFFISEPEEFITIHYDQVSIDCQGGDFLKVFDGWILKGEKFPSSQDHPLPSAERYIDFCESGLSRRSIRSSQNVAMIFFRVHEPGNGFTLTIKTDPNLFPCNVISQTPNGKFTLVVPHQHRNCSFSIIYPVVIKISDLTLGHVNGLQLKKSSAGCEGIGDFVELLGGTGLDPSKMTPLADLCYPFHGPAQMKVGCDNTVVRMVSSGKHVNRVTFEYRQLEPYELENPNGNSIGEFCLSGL

[8] = molecular target: T3, Corticotropin-releasing factor receptor 2/Corticotropin-releasing factor-binding protein; test: activators of CRF receptor 2 with binding protein – uHTS hits, confirmation (AID 602473); type: functional; details: read-out: EC50_Mean
[9] = CRF-BP/CRF-R2 complex antagonists, dose response, cell-based, uHTS hits, 384-well (AID 651639); type: functional, Homo sapiens; details: read-out: IC50_Mean
[10] = molecular target: Beta-galactosidase (Escherichia coli, UniProt Q8VNN2); test: Dose response counterscreen for EBI2 assay utilizing the enzyme, b-galactosidase.; type: functional
Chain of Beta-galactosidase (Q8VNN2 whole entry): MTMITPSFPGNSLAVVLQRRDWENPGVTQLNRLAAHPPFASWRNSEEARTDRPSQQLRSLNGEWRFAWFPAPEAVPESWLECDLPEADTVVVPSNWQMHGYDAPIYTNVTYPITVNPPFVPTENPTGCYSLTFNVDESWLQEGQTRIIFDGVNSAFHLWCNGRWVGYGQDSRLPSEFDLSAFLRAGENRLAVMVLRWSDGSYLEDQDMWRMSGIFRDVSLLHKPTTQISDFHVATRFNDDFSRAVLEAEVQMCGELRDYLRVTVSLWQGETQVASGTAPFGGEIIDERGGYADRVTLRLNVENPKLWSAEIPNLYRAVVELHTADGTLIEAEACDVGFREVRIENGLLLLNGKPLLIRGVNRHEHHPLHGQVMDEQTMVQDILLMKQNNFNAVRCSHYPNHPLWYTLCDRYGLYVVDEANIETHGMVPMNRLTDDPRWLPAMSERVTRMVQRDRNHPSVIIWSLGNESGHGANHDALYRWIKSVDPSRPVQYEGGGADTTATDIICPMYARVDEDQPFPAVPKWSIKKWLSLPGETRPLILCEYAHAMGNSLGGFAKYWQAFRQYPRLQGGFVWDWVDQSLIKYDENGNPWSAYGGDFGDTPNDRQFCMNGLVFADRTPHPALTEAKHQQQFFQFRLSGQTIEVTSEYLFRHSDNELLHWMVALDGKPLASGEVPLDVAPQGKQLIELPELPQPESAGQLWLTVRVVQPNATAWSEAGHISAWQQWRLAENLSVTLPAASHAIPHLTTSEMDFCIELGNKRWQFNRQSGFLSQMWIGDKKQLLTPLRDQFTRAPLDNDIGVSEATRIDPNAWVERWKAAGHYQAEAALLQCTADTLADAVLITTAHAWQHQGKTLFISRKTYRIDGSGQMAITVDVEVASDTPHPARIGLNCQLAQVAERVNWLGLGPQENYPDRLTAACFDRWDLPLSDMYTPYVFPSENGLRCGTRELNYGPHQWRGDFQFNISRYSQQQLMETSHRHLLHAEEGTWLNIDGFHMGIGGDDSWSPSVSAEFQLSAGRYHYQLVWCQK

[11] = molecular target: T4, Histone-lysine N-methyltransferase NSD2 (Homo sapiens, UniProt O96028); type: biochemical
T4 sequence (O96028 whole entry): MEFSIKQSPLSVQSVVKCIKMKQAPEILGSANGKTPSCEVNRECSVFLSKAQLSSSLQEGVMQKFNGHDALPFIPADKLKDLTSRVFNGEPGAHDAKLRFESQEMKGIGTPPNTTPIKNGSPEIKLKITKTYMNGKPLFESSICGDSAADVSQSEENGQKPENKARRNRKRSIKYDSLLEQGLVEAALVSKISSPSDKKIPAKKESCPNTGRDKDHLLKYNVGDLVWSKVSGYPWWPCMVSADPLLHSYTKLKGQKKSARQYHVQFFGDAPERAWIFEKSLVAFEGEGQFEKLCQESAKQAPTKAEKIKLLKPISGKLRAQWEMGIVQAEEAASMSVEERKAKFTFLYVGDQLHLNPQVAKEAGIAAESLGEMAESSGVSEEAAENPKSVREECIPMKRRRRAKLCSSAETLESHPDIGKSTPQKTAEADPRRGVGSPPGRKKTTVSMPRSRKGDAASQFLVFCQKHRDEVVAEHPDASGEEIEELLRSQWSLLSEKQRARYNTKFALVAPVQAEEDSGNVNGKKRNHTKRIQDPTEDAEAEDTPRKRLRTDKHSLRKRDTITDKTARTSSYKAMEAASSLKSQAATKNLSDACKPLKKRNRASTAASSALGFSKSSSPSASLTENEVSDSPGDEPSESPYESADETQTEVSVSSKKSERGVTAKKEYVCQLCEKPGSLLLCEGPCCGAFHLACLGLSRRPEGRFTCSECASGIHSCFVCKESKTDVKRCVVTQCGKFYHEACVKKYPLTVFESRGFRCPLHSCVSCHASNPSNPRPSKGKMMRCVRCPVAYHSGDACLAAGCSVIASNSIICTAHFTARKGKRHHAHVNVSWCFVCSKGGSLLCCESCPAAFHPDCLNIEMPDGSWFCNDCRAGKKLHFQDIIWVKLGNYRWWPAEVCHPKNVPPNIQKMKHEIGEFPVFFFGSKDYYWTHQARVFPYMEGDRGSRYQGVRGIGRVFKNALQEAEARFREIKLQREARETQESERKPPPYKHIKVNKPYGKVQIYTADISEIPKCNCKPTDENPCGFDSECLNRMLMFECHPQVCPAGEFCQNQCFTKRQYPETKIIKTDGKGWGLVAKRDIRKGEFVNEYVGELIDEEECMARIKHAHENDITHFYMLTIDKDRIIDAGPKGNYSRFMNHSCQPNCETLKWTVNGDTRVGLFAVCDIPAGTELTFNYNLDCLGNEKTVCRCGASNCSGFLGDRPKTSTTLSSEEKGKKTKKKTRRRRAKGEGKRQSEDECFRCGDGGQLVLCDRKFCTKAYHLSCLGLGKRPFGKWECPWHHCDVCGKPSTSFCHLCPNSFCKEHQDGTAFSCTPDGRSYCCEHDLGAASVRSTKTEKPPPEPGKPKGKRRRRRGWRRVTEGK

[12] = molecular target: Large T antigen (Simian virus 40, UniProt P03070); type: functional, Betapolyomavirus macacae;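 note: Confirmatory-stage PubChem screen for compounds that inhibit SV40 T antigen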
Chain of Large T antigen (P03070 whole entry): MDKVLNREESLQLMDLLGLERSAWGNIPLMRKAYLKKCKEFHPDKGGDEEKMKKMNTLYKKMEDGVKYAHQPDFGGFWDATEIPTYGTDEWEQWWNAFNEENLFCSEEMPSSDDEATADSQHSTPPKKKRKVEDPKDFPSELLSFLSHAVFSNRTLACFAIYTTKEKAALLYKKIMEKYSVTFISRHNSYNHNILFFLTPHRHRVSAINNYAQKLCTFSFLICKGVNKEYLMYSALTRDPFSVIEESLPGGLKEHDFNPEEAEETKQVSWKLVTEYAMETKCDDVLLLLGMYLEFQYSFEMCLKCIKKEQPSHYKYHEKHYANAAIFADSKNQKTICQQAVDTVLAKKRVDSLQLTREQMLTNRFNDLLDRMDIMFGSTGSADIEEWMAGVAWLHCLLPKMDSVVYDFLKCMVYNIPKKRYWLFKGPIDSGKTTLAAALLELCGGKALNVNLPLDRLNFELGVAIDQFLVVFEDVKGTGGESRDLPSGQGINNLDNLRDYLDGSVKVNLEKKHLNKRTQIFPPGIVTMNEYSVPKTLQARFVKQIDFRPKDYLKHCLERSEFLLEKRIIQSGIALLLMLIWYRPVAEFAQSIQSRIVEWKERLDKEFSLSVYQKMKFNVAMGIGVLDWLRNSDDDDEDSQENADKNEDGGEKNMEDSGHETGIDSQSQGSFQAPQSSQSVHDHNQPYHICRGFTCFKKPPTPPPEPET

[13] = molecular target: 26S proteasome non-ATPase regulatory subunit 14 (Homo sapiens, UniProt O00487); test: inhibition of proteasome subunit RPN11 – biochemical, fluorescence polarization, uHTS hits, confirmation (AID 602368); type: functional
Chain of 26S proteasome non-ATPase regulatory subunit 14 (O00487 whole entry): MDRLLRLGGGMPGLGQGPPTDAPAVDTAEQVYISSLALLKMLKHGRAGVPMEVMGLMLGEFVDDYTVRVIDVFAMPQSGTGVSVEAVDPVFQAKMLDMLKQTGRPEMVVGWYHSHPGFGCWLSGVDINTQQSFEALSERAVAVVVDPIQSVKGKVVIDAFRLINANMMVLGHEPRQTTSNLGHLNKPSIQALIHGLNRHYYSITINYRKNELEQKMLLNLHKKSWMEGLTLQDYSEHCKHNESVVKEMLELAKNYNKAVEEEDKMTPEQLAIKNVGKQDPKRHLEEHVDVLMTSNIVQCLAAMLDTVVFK

[14] = molecular target: 72 kDa type IV collagenase (Homo sapiens, UniProt P08253); test: Dose Response validation of uHTS RPN11 inhibitor hits using a MMP-2 Fluorescence assay.; type: functional
Chain of 72 kDa type IV collagenase (P08253 whole entry): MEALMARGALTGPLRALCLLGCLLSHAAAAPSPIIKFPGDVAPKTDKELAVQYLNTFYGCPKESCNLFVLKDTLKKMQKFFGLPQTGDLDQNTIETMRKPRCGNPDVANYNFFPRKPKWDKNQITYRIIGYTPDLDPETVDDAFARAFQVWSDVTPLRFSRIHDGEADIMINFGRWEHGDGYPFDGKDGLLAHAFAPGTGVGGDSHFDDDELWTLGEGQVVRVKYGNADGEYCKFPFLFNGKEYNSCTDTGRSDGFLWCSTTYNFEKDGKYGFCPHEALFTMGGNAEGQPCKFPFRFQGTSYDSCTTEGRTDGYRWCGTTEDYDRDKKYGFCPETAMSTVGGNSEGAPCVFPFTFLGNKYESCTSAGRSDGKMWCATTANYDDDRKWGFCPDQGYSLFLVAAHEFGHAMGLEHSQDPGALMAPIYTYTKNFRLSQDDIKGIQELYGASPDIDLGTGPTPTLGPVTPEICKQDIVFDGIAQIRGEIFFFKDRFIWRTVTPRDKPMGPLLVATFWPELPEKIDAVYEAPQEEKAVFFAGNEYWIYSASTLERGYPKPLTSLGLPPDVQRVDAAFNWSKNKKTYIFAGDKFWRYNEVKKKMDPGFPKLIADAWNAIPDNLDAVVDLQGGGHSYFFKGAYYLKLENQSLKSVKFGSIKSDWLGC

[15] = molecular target: Prothrombin (Bos taurus, UniProt P00735); test: thrombin inhibition, dose response, biochemical, fluorescence polarization, uHTS hits (AID 602369); type: functional
[16] = molecular target: Cytochrome P450 2D6 (Homo sapiens, UniProt P10635);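 note: CYP2D6 member of a cytochrome P450 panel assay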
Chain of Cytochrome P450 2D6 (P10635 whole entry): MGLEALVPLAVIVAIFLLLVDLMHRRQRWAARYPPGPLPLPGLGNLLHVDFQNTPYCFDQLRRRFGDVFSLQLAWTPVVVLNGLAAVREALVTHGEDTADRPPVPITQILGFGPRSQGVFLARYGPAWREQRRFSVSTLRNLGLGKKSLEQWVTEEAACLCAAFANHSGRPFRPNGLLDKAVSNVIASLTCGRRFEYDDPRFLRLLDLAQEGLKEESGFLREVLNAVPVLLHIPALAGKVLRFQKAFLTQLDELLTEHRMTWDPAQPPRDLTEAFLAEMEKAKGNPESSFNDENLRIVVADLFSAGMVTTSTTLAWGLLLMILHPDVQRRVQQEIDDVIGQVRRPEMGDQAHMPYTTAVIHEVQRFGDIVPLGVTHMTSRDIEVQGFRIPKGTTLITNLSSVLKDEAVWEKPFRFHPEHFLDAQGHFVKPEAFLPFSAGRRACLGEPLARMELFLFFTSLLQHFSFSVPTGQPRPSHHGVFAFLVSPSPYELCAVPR

With `COc1ccc(-c2nnc(SC)nc2-c2ccc(OC)c([N+](=O)[O-])c2)cc1[N+](=O)[O-]` the IC50 [1] was > 100 µM (inactive) and the IC50 [2] was 46.9 µM (active).

With `CN(CCc1ccccc1)C(=O)CC1C(=O)NCCN1Cc1ccccn1` (centres undefined) the IC50 [3] was > 29.9 µM (inactive), the EC50 [4] was 3.05 µM (active) and the IC50 [5] was 9.93 µM (active). The EC50 [6] was > 29.9 µM (inactive).

In the case of `COc1cccc(NC(=S)NC(Cc2ccccc2)c2ccccc2)c1` (centres undefined), the IC50 [7] is reported as 3.35 µM (active), the EC50 [8] is reported as > 53 µM (inactive) and the IC50 [9] is reported as 2.73 µM (active).

For `Cc1ccc(Nc2ccc(C(=O)NCCc3ccccc3)cn2)cc1`, the IC50 [10] was > 80 µM (inactive).

In the case of `CC(NC(=O)COC(=O)c1ccc([N+](=O)[O-])s1)c1ccccc1` (centres undefined), the IC50 [1] is reported as 6.55 µM (active) and the IC50 [2] is reported as 17.1 µM (active).

In the case of `CCN(CC)C1CCN(c2nc3nonc3nc2NCCOC)C1` (centres undefined), the AC50 [11] is reported as 14.4 µM (active).

For `Cc1ccc(CNC(=O)C2CCN(S(=O)(=O)c3ccc4c(c3)OCCCO4)CC2)cc1`, the IC50 [10] was > 80 µM (inactive).

For `N#C/C(=C\c1ccc(O)c(O)c1)C(=O)Nc1ccccc1`, the IC50 [12] was 13.1 µM (active), the IC50 [13] was 1.3 µM (active) and the IC50 [14] was > 100 µM (inactive). For the same compound, the IC50 [15] was 67.9 µM (active) and the AC50 [16] was 39.8 µM (inconclusive).
